Data reported in the NIST ThermoML archive (doi:10.1021/acs.jced.8b00948).

Test: xn = mol fraction of the nth substance listed
Details: for surface tension liquid-gas: Pendant drop shape; for viscosity: 101 kPa, Liquid, Concentric cylinders viscometry

CCn1cc[n+](C)c1.COS(=O)(=O)[O-] [1-ethyl-3-methylimidazolium methylsulfate] + CCCCCO
Details | surface tension liquid-gas, 298.15 K [mN/m] | surface tension liquid-gas, 303.15 K [mN/m] | surface tension liquid-gas, 308.15 K [mN/m] | surface tension liquid-gas, 313.15 K [mN/m] | viscosity, 298.15 K [mPa·s] | viscosity, 303.15 K [mPa·s] | viscosity, 308.15 K [mPa·s] | viscosity, 313.15 K [mPa·s]
x1 = 0.05 | 26.1 | 25.7 | 25.3 | 24.9 | 5.15 | 4.07 | 3.74 | 3.24
x1 = 0.284 | 32.3 | 32 | 31.6 | 31.3 | 14.8 | 11.9 | 10.2 | 8.52
x1 = 0.459 | 37.1 | 36.8 | 36.5 | 36.2 | 24.4 | 19.4 | 16.3 | 13.6
x1 = 0.613 | 41.4 | 41.1 | 40.8 | 40.5 | 34.7 | 27.3 | 22.5 | 18.7
x1 = 0.768 | 45.8 | 45.5 | 45.2 | 44.9 | 46.9 | 37 | 30.5 | 25.2
x1 = 0.922 | 50.3 | 50 | 49.7 | 49.4 | 60.9 | 48.8 | 40.1 | 33.3
x1 = 1 | 52.5 | 52.2 | 51.9 | 51.6 | 68.5 | 55.4 | 45.5 | 37.9

CCCCO [butan-1-ol] + CCn1cc[n+](C)c1.COS(=O)(=O)[O-]
x2 = 0
Details | surface tension liquid-gas [mN/m] | viscosity [mPa·s]
298.15 K | 23.9 | 2.57
303.15 K | 23.5 | 2.28
308.15 K | 23.1 | 2.01
313.15 K | 22.7 | 1.75

CCCCCO [pentan-1-ol] + COS(=O)(=O)[O-].Cn1cc[n+](C)c1
x2 = 0
Details | surface tension liquid-gas [mN/m] | viscosity [mPa·s]
298.15 K | 24.7 | 3.51
303.15 K | 24.3 | 2.84
308.15 K | 23.9 | 2.64
313.15 K | 23.5 | 2.34

CCCO [propan-1-ol] + COS(=O)(=O)[O-].Cn1cc[n+](C)c1
x2 = 0
Details | surface tension liquid-gas [mN/m] | viscosity [mPa·s]
298.15 K | 23.2 | 1.94
303.15 K | 22.8 | 1.72
308.15 K | 22.3 | 1.54
313.15 K | 21.9 | 1.38

COS(=O)(=O)[O-].Cn1cc[n+](C)c1 [1,3-dimethylimidazolium methylsulfate] + CCCCO
Details | surface tension liquid-gas, 298.15 K [mN/m] | surface tension liquid-gas, 303.15 K [mN/m] | surface tension liquid-gas, 308.15 K [mN/m] | surface tension liquid-gas, 313.15 K [mN/m] | viscosity, 298.15 K [mPa·s] | viscosity, 303.15 K [mPa·s] | viscosity, 308.15 K [mPa·s] | viscosity, 313.15 K [mPa·s]
x1 = 0.063 | 26 | 25.6 | 25.2 | 24.8 | 5.34 | 4.58 | 3.86 | 3.2
x1 = 0.221 | 31.2 | 30.9 | 30.6 | 30.2 | 13.5 | 10.5 | 8.53 | 7.18
x1 = 0.432 | 38.3 | 38.1 | 37.8 | 37.5 | 26.3 | 20.2 | 16.1 | 13.6
x1 = 0.64 | 45.5 | 45.3 | 45 | 44.7 | 41.4 | 32.6 | 26.1 | 21.9
x1 = 0.781 | 50.5 | 50.3 | 50 | 49.7 | 54 | 43.3 | 34.8 | 29
x1 = 0.927 | 55.8 | 55.5 | 55.2 | 55 | 69.7 | 55.5 | 45 | 37
x1 = 1 | 58.5 | 58.2 | 57.9 | 57.6 | 78 | 61.9 | 49.9 | 40.9

CCCO [propan-1-ol] + CCn1cc[n+](C)c1.COS(=O)(=O)[O-]
x2 = 0
Details | surface tension liquid-gas [mN/m] | viscosity [mPa·s]
298.15 K | 23.2 | 1.94
303.15 K | 22.8 | 1.72
308.15 K | 22.3 | 1.54
313.15 K | 21.9 | 1.38

CCCCCO [pentan-1-ol] + CCn1cc[n+](C)c1.COS(=O)(=O)[O-]
x2 = 0
Details | surface tension liquid-gas [mN/m] | viscosity [mPa·s]
298.15 K | 24.7 | 3.51
303.15 K | 24.3 | 2.84
308.15 K | 23.9 | 2.64
313.15 K | 23.5 | 2.34

COS(=O)(=O)[O-].Cn1cc[n+](C)c1 [1,3-dimethylimidazolium methylsulfate] + CCCO
Details | surface tension liquid-gas, 298.15 K [mN/m] | surface tension liquid-gas, 303.15 K [mN/m] | surface tension liquid-gas, 308.15 K [mN/m] | surface tension liquid-gas, 313.15 K [mN/m] | viscosity, 298.15 K [mPa·s] | viscosity, 303.15 K [mPa·s] | viscosity, 308.15 K [mPa·s] | viscosity, 313.15 K [mPa·s]
x1 = 0.039 | 24.5 | 24 | 23.6 | 23.2 | 3.15 | 2.97 | 2.53 | 2.2
x1 = 0.208 | 30.1 | 29.8 | 29.4 | 29.1 | 10.7 | 8.55 | 6.76 | 6.05
x1 = 0.382 | 36.1 | 35.8 | 35.5 | 35.2 | 19.6 | 15.4 | 12.2 | 10.5
x1 = 0.561 | 42.3 | 42.1 | 41.8 | 41.6 | 31.3 | 25.1 | 20.1 | 16.8
x1 = 0.702 | 47.4 | 47.2 | 46.9 | 46.6 | 42.5 | 34.7 | 28.1 | 23.2
x1 = 0.912 | 55.1 | 54.9 | 54.6 | 54.3 | 65.2 | 52.9 | 42.7 | 35.3
x1 = 1 | 58.5 | 58.2 | 57.9 | 57.6 | 78 | 61.9 | 49.9 | 40.9

CCn1cc[n+](C)c1.COS(=O)(=O)[O-] [1-ethyl-3-methylimidazolium methylsulfate] + CCCCO
Details | surface tension liquid-gas, 298.15 K [mN/m] | surface tension liquid-gas, 303.15 K [mN/m] | surface tension liquid-gas, 308.15 K [mN/m] | surface tension liquid-gas, 313.15 K [mN/m] | viscosity, 298.15 K [mPa·s] | viscosity, 303.15 K [mPa·s] | viscosity, 308.15 K [mPa·s] | viscosity, 313.15 K [mPa·s]
x1 = 0.041 | 25 | 24.7 | 24.3 | 23.9 | 3.84 | 3.3 | 2.86 | 2.45
x1 = 0.219 | 29.9 | 29.5 | 29.2 | 28.9 | 10.7 | 8.75 | 7.38 | 6.22
x1 = 0.417 | 35.3 | 35.1 | 34.7 | 34.5 | 20.3 | 16.4 | 13.8 | 11.4
x1 = 0.571 | 39.8 | 39.5 | 39.2 | 38.9 | 29 | 23.4 | 19.5 | 16.2
x1 = 0.731 | 44.4 | 44.2 | 43.9 | 43.6 | 41.1 | 33.1 | 27.5 | 22.8
x1 = 0.909 | 49.8 | 49.5 | 49.2 | 48.9 | 58.2 | 46.8 | 38.4 | 31.8
x1 = 1 | 52.5 | 52.2 | 51.9 | 51.6 | 68.5 | 55.4 | 45.5 | 37.9

COS(=O)(=O)[O-].Cn1cc[n+](C)c1 [1,3-dimethylimidazolium methylsulfate] + CCCCCO
Details | surface tension liquid-gas, 298.15 K [mN/m] | surface tension liquid-gas, 303.15 K [mN/m] | surface tension liquid-gas, 308.15 K [mN/m] | surface tension liquid-gas, 313.15 K [mN/m] | viscosity, 298.15 K [mPa·s] | viscosity, 303.15 K [mPa·s] | viscosity, 308.15 K [mPa·s] | viscosity, 313.15 K [mPa·s]
x1 = 0.1 | 28 | 27.6 | 27.2 | 26.9 | 9.23 | 7.19 | 6.2 | 5.25
x1 = 0.35 | 36.2 | 35.9 | 35.6 | 35.3 | 24.7 | 19.4 | 15.7 | 12.7
x1 = 0.54 | 42.6 | 42.3 | 42 | 41.7 | 38.2 | 29.9 | 24.1 | 19.8
x1 = 0.661 | 46.7 | 46.4 | 46.1 | 45.8 | 47.7 | 37.3 | 30 | 24.7
x1 = 0.79 | 51.1 | 50.8 | 50.5 | 50.3 | 58.9 | 46.5 | 37.5 | 30.8
x1 = 0.931 | 56.1 | 55.8 | 55.5 | 55.2 | 71.8 | 57.1 | 46 | 37.8
x1 = 1 | 58.5 | 58.2 | 57.9 | 57.6 | 78 | 61.9 | 49.9 | 40.9

CCCCO [butan-1-ol] + COS(=O)(=O)[O-].Cn1cc[n+](C)c1
x2 = 0
Details | surface tension liquid-gas [mN/m] | viscosity [mPa·s]
298.15 K | 23.9 | 2.57
303.15 K | 23.5 | 2.28
308.15 K | 23.1 | 2.01
313.15 K | 22.7 | 1.75

CCn1cc[n+](C)c1.COS(=O)(=O)[O-] [1-ethyl-3-methylimidazolium methylsulfate] + CCCO
Details | surface tension liquid-gas, 298.15 K [mN/m] | surface tension liquid-gas, 303.15 K [mN/m] | surface tension liquid-gas, 308.15 K [mN/m] | surface tension liquid-gas, 313.15 K [mN/m] | viscosity, 298.15 K [mPa·s] | viscosity, 303.15 K [mPa·s] | viscosity, 308.15 K [mPa·s] | viscosity, 313.15 K [mPa·s]
x1 = 0.059 | 24.8 | 24.4 | 24 | 23.6 | 3.71 | 3.14 | 2.72 | 2.36
x1 = 0.228 | 29.5 | 29.1 | 28.8 | 28.5 | 9.94 | 8.07 | 6.8 | 5.75
x1 = 0.375 | 33.6 | 33.4 | 33.1 | 32.8 | 17 | 13.7 | 11.6 | 9.72
x1 = 0.524 | 38 | 37.7 | 37.4 | 37.2 | 24.7 | 19.8 | 16.6 | 13.9
x1 = 0.72 | 43.8 | 43.6 | 43.3 | 43 | 38.9 | 31.3 | 25.9 | 21.6
x1 = 0.874 | 48.6 | 48.3 | 48 | 47.7 | 52.7 | 42.5 | 35.1 | 29.2
x1 = 1 | 52.5 | 52.2 | 51.9 | 51.6 | 68.5 | 55.4 | 45.5 | 37.9
